Experiments:
[1] = test system: FVII (Factor VII), mF7-III target gene; assay: RNA interference against FVII by 3′-capped siRNAs (FIG. 2); design: species or system mouse; conditions: 19-mer blunt-ended mF7-III siRNA, A12S17
[2] = Serum stability of siRNAs with 3′ end caps in mouse serum; conditions: 100% mouse serum, 37° C., up to 24 h; compared to luciferase and dTsdT controls
[3] = Serum stability of siRNAs with 3′ end caps in human serum; conditions: 100% human serum, 37° C., up to 24 h; gel with SYBR gold
human SSB = assay: Human SSB RNAi agent, RNA interference in vitro; type: cell-based
[4] = test system: human HAMP (Hepcidin) gene; assay: Hepcidin mRNA down regulation by HAMP siRNA-PAZ ligand conjugates in HuH-7 cells; type: cell-based; conditions: Hepcidin RNAi agent, format S402+ribitol+MOE clamp

c1ccc(-c2ccccc2)cc1 [Biphenyl]
ability of the RNAi agent to perform RNA interference (FIG. 2) [1]: allow the RNAi agent to perform RNA interference | stability in mouse serum [2]: increased stability | stability in human serum [3]: increased stability

OCCOCCOCCO [Triethylene glycol]
ability of the RNAi agent to perform RNA interference (FIG. 2) [1]: allow the RNAi agent to perform RNA interference

C1C2CC3CC1CC(C2)C3 [Adamantane]
ability of the RNAi agent to perform RNA interference (FIG. 2) [1]: allow the RNAi agent to perform RNA interference

hs_SSB_309_AS_18mer-C3-C6: "human SSB RNAi agent"; "AS: UuAcAUuAAAGUCUGU87-C3pC6", "S: cAAcAGAcuuuAAuGu55-C3pC6" (SEQ ID NO: 90, 91) (chain 1 UUACAUUAAAGUCUGUTG; chain 2 CAACAGACUUUAAUGUAA; C3pC6 3' end caps on both strands, further chemistry not given here)
RNA interference in vitro (human SSB): effective at mediating RNA interference in vitro

c1ccc(-c2ccccc2)cc1 [BP (biphenyl), biphenyl]
Hepcidin KD at 5 nM in vitro (%) [4]: 68%
